These results are taken from US5821231A, “CS-1 peptidomimetics, compositions and methods of using same” (Cytel Corporation, priority 1995, dated 1998).

Square brackets hold non-standard residues; d marks the D form. Peptide text beside a SMILES is read from it. * marks the point of attachment. NMeD = CN[C@@H](CC(=O)O)C(=O)O; Morpholide = C1CN(*)CCO1; PhAc = O=C(Cc1ccccc1)*; X6 = O=C(O)CO*

For assay [1], the system named is BALB/c mice. The experiment in a line: Adoptive transfer delayed type hypersensitivity in mice (oxazolone). As to conditions: expanded study; versus vehicle alone. Format: in vivo, mouse. Here is the method:
An adoptive transfer delayed-type hypersensitivity murine model has been developed using splenic T cells primed to oxazolone. This model is described in Elices et al., Clin. Exp. Rheum., 11(Suppl. 8):577-580 (1993), whose procedures were followed here.
Thus, BALB/c mice were shaved on the belly and painted (50 μl on the belly and 5 μl on each paw) with three percent oxazolone in acetone/olive oil (4:1) at days zero and 1. At day 5, the mice were sacrificed, their spleens removed, and splenic T cells were obtained via nylon wool columns.
Normal saline or saline containing 25×10^6 /animal of the oxazolone-immune T cells were separately injected into naive mice. The mice were then challenged by painting 10 μl of 2 percent oxazolone onto one ear each. All procedures were carried out under sterile conditions and in endotoxin-free buffers.
Prior to challenge or saline injection, the mice were implanted with pumps that subcutaneously administered normal saline, normal saline containing the compound, Compound ID No. 896.52, N-phenylacetyl-Leu-Asp-Phe-D-Pro-NH2, or normal saline containing a compound with a scrambled sequence continually at 6 mg/kg/day for a 24-hour time period. The swelling diameter at the site of challenge or saline injection was measured with a microcaliper 24 hours thereafter.
An expanded study was carried out as described above except that a scrambled compound control was not used as a control for further inhibitor compounds of Table 1 with larger groups of mice. Statistical analyses were carried out versus injection of vehicle alone.

Assay [2] has as its target T1, VLA-4 (Homo sapiens, UniProt P05556+P13612). The assay is described as follows: In vitro binding assay: 51Cr-labeled Jurkat cells to solid phase-bound CS-1 compound (SEQ ID NO:1). As to conditions: for Relative Potency: binding inhibition potency (IC50) relative to standard compound of SEQ ID NO:3 = 1, about one-tenth or less assigned zero. Format: cell-based. Further details: inflammatory cells that contain the VLA-4 receptor [Jurkat cells; host or cells: Jurkat cells (human T lymphoblastic line). As to the method:
Binding inhibition is measured here as a concentration of compound that inhibits one-half the binding between a standard number of Jurkat cells and a standard amount of CS-1 compound bound to the surface of a microtiter plate well. Those concentrations are conveniently expressed as IC50 values, smaller numbers indicating a lower concentration required to inhibit 50 percent binding and therefore greater potency. Further specifics of this assay are provided hereinafter.
Jurkat cells (ATCC TIB 152), a human T lymphoblastic line, labeled with ^51 chromium were used to assay in vitro binding inhibition provided by various compounds discussed herein.
The plates were prepared as follows: The 25-mer CS-1 compound (SEQ ID NO:1) dissolved at 0.5-1 μg/ml in a buffer of 0.1M NaHCO3 at pH 9.5 that also contained 10 μg/ml of bovine serum albumin (BSA) or a conjugate of the CS-1 compound linked to ovalbumin (CS-1-OVA) dissolved at 1-2.5 μg/ml in the same buffer was used as the substrate. Each well of the microtiter plates was coated with 50 μl of substrate or buffer alone for controls. The wells were permitted to dry out completely and were then rinsed twice with PBS at pH 7.4. Non-specific binding sites of each well were then blocked using 200 μl per well of RPMI/1 percent BSA for two hours at room temperature.
Jurkat cells (3-5×10^6 cells) were placed into a 15 ml Falcon™ round-bottom tube with a cap. The tube was centrifuged, and the extra medium was then removed.
Two hundred microliters of a ^51 Cr labeling solution were added to the centrifuged cells and maintained in contact with the cells for 90-120 minutes in a warm room. […] Longer contact times provide a greater amount of labeling but lower cell viability.
The labeled cells are washed with (i) complete medium, (ii) 1 mM EDTA/PBS and then (iii) RPM1/1 percent BSA free of serum components. The cells are centrifuged after each washing. The cells are finally resuspended in serum-free RPMI/1 percent BSA at a concentration of 1×10^6 viable cells/ml, which provides a concentration that is diluted by one-half in the assay.
Inhibitor compounds are prepared as stock solutions at 20 mg/ml in DMSO in 1.5 ml cryogenic screwcap vials, and were stored at -70° C. Using Flow™ round-bottom or V-bottom microtiter plates, the inhibitor compounds were prepared at twice the assay concentration in RPMI/1 percent BSA at 60 μl/well.
Four initial dilutions were typically used.
The ^51 Cr-labeled cells ([…] at 60 μl/well) were then admixed with the diluted compound solutions. The admixtures were maintained at room temperature (about 22° C.) for 30 minutes.
One hundred microliters of each inhibitor compound/cell admixture were transferred to the substrate-coated wells. This was done in triplicate for each dilution. The resulting plates were incubated for 30 minutes at 37° C. and then washed gently three times with RPMI/1 percent BSA at 200 μl/well. Binding was observed microscopically, particularly after the second wash.
The bound cells were then lysed by the addition of a 0.5 percent solution of sodium dodecylsulfate in water at 100 μl/well. The resulting solutions were then processed for counting and calculation of IC50 values following usual procedures.
The data of Table 1 are normalized to the binding of SEQ ID NO: 3. […] Multiple assays for the same compound were averaged.

In assay [3] the test system is immune T cells. As to conditions: about 50 μg/ml admixed with immune T cells; Ferguson et al.; cited from earlier work.
The test system of assay [4] is Jurkat T cell line. The assay is described as follows: Jurkat cell binding to frozen human rheumatoid arthritis synovial sections. Particulars: 10-mer at 500 μg/ml. The assay is classed as cell-based. As to the method: Binding studies were carried out using the Jurkat T cell line and frozen RA synovial sections. […] Stimulated MOLT-4 cells behaved similarly.
The absolute value of that IC50 value is about 0.5 μmolar.

Assay [5] deals with T1, VLA-4. As to conditions: cited from earlier work.
The test system of assay [6] is New Zealand white rabbits. The experiment in a line: Treatment of asthmatic rabbits (house dust mite antigen challenge, crossover). Format: in vivo, rabbit. As to conditions: 100 mg/kg nebulizer. Here is the method:
Six New Zealand white rabbits were immunized with house dust mite antigen from birth through four months of age. Upon immunization, three rabbits received a single nebulizer administration of the inhibitor compound, Compound ID No. 1051.01, N-phenylacetyl-Leu-Asp-Phe-morpholinamide in aqueous 50 percent ethanol as diluent in an amount of 100 mg/kg, and the other three received diluent alone. All of the rabbits were challenged with house dust mite antigen about 15-30 minutes after administration of the compound, with those animals not receiving compound serving as controls.
Once immunized and challenged, the inflammatory state subsides to a basal level within about three weeks. The three animals used as controls were thereafter used as subjects for receipt of an inhibitor compound, and the three rabbits that initially received the compound can serve as controls.
Such a crossover study was done here. […]
Initial pulmonary function, measured by dynamic compliance (Cdyn) and lung resistance (RL), and bronchoalveolar lavage (BAL) to obtain an effector cell count, here eosinophils, were conducted prior to administration of the compound or diluent for both portions of this crossover study. […]

T1 sequence (P13612 34-1032): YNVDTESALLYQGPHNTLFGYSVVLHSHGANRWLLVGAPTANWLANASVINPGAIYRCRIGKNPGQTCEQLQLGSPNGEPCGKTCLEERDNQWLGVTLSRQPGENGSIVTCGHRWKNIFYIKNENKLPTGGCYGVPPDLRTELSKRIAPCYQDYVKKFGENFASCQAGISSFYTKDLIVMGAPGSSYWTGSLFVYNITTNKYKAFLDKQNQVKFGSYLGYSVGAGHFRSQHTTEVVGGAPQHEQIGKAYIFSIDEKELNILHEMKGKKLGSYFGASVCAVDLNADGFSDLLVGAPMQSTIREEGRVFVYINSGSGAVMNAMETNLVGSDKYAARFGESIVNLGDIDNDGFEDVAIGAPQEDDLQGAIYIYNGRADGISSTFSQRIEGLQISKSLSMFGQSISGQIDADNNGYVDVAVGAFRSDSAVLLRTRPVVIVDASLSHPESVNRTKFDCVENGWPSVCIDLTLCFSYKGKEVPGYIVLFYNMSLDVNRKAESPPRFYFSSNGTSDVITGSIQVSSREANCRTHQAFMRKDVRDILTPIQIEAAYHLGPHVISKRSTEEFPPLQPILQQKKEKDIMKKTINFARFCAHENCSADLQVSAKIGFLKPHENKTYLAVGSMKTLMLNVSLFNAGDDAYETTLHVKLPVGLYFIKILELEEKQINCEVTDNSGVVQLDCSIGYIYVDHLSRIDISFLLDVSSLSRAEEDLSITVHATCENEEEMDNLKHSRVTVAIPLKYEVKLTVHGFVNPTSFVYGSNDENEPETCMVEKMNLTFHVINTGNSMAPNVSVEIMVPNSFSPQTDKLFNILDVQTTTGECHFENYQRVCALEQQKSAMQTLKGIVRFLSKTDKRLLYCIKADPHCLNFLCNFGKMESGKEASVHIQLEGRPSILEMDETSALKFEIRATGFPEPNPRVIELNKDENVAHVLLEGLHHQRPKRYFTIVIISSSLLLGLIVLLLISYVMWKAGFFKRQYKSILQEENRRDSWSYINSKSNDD
T1 sequence (P05556 21-798): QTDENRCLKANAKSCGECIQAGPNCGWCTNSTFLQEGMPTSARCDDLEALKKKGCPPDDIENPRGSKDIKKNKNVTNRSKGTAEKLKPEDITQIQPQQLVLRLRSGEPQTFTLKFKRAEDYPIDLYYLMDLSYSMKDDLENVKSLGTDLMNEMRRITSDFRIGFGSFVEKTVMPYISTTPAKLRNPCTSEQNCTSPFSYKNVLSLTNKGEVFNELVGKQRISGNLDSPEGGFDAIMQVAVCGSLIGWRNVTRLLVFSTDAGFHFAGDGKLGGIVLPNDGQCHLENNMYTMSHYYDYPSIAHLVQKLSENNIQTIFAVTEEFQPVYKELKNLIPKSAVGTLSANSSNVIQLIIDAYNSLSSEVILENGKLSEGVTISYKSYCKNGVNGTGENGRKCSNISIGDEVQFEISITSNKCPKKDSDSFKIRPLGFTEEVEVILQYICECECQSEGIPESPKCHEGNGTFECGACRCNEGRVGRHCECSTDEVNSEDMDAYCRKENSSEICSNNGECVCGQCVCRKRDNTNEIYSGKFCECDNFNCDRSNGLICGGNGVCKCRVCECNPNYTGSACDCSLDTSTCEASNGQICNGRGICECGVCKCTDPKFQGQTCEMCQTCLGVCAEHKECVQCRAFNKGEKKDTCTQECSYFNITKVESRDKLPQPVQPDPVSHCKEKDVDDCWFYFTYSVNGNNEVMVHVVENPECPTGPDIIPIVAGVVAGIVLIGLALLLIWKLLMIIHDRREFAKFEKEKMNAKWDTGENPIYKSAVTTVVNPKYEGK

For `CC(C)C[C@H](NC(=O)Cc1ccccc1)C(=O)N[C@@H](CC(=O)O)C(=O)N[C@@H](Cc1ccccc1)C(=O)N1CCN(CC(=O)O)CC1` [1111.06, .phi.Ac--Leu--Asp--Phe-4-N(carboxymethyl)piperazinamide], the “Percent Inhibition (post-challenge swelling)” value in assay [1] is 30%. In addition, the “Relative Potency” value in assay [2] stood at 2600. For the compound `CC(C)C[C@H](NC(=O)Cc1ccccc1)C(=O)N[C@@H](CC(=O)O)C(=O)N[C@@H](Cc1ccccc1)C(=O)N1CCC(O)CC1` [1070.02, .phi.Ac--Leu--Asp--Phe-4-hydroxpiperidinamide], the “Percent Inhibition (post-challenge swelling)” value in assay [1] is 29%. In the case of `CC[C@H](C)[C@H](NC(=O)[C@H](CCC(=O)O)NC(=O)[C@@H]1CCCN1C(=O)CN)C(=O)N[C@@H](CC(C)C)C(=O)N[C@@H](CC(=O)O)C(=O)N[C@H](C(=O)N1CCC[C@H]1C(=O)N[C@@H](CO)C(=O)N[C@H](C(=O)O)[C@@H](C)O)C(C)C` [SEQ ID NO:3, GPEILDVPST] (H-GPEILDVPST-OH), in assay [3], the “abrogation of a transferred immune response” value is reported as “could abrogate a transferred immune response”. In addition, the “inhibition of Jurkat cell adhesion to RA synovial sections” value in assay [4] is “could be inhibited”. Consider Leu-Asp-Val [LDV], for which the “affinity of VLA-4 relative to native CS-1 25-mer” value in assay [5] is listed as “at least two orders of magnitude lower affinity”. For the compound `CC(C)C[C@H](NC(=O)Cc1ccccc1)C(=O)N[C@@H](CC(=O)O)C(=O)N[C@@H](Cc1ccccc1)C(=O)N1CCOCC1` [1051.01, N-phenylacetyl-Leu-Asp-Phe-morpholinamide] (PhAc-Leu-Asp-Phe-Morpholide), the “Cdyn value over six hours after challenge” value in assay [6] (FIG. 4A) is recorded as “stayed at about the initial value”. Besides, the “RL values over six hours after challenge” value in assay [6] (FIG. 4B) is “remained between the initial value and about 200% of that value”. As to `CC(C)C[C@H](NC(=O)Cc1ccccc1)C(=O)N(C)[C@@H](CC(=O)O)C(=O)N[C@@H](Cc1ccccc1)C(=O)N1CCC[C@@H]1C(N)=O` [1190.06] (PhAc-L[NMeD]F[dP]-NH2), in assay [2], the “Relative Potency” value is on record as 0. On the same count and under the same terms, as for `CC(C)C[C@H](NC(=O)c1ccccc1)C(=O)N[C@@H](CC(=O)O)C(=O)N[C@H](C(=O)N1CCC[C@@H]1C(N)=O)C(C)C` [926.02], the figure is 9.6.

Take `CC(C)C[C@H](NC(=O)Cc1ccccc1)C(=O)N[C@@H](CC(=O)OCC(=O)O)C(=O)N[C@@H](Cc1ccccc1)C(=O)N1CCC[C@@H]1C(N)=O` [1067.02] (PhAc-LD(X6)F[dP]-NH2): in assay [2] (before the prodrug compound is enzymatically converted to an active form, relative to SEQ ID NO:3 = 1), the “Relative Potency (prodrug compound)” value is “.81”.
